Source: PMC10831786 (Virus Research, 2024)
Where a name gives a salt, the structure may show the parent alone. Read-outs that look alike come from different tables or passages of the source.

Tests used:
[1] = tested on: protein synthesis in Vero E6 cells; assay: Puromycin pulse labeling, protein synthesis in cultured Vero E6 cells; assay type: cell-based, African green monkey; conditions: for IC50: Chlorocebus sabaeus
Procedure: Vero E6 cells were seeded at 30,000 cells per cm^2 in 6-well plates. […] Control experiments were conducted in medium alone and medium containing cycloheximide or DMSO. After 12 min, cells were washed with 37° PBS and then allowed to recover in drug-free 2 % FBS-EMEM for 30 min. Cell pellets, collected by trypsinization and centrifugation for 5 min at 5 000 rpm at 4 °C, were re-suspended in ice-cold PBS and centrifugation was repeated. Collected cells were stored at −80 °C.
Antibodies used were anti-puromycin monoclonal (TFS; MABE34), goat anti-mouse-HRP (TFS, Invitrogen; G21040), rabbit anti-β-actin (Cell Signaling, 4967S, lot 9) and HRP-conjugated goat-anti-rabbit (Cell Signaling, 7074S, lot 27). Protein extract and immunoblotting methods were done by standard methods reported here as Supplementary Information.
Vero E6 cells were seeded at 30,000 cells per cm^2 in 6-well plates. […] Puromycin labelling protocols have been well established by other laboratories and a general review of the methods has been published^79. Control experiments were conducted in medium alone and medium containing cycloheximide or DMSO. Following incubation with puromycin for 12 min, the medium was quickly removed and cells were washed with warm PBS and then allowed to recover in drug-free 2% FBS-EMEM for 30 min. Cell pellets, collected by trypsinization and centrifugation for 5 min at 5 000 rpm at 4°C, were re-suspended in ice-cold PBS and the centrifugation was repeated. Collected cells were stored at -80°C until subjected to the protein preparation as noted below.
Defrosted cell pellets were re-suspended in 120 µl of RIPA (radio-immunoprecipitation) buffer (Sigma; R0278) containing 7 µl of protease inhibitors (Sigma; P8340). Samples were incubated on ice for 40 min with occasional gentle mixing. Cell debris was removed by a 20 min centrifugation at 16,000 g at 4°C and supernatants were stored at -80°C. Protein was measured by the Pierce^TM bicinchoninic acid (BCA) assay (Thermo Fisher Scientific [TFS], MA, USA; 23250), using bovine serum albumin as a standard, according to protocols recommended by the manufacturer.
For immunoblotting, 10 µg of protein was combined with Laemmli buffer containing 10% β-mercaptoethanol, heated at 95°C for 5 min and loaded on 4-20% Mini-PROTEAN® TGX™ precast protein gels. Samples were resolved by electrophoresis in Tris-Gly-SDS buffer and transferred to nitrocellulose membranes. Transfer was conducted in Tris-Gly buffer containing 20% methanol at 4-6 V/cm^2 for one hour. Membranes were blocked in 10 mM sodium phosphate buffer containing 150 mM NaCl (pH 7.8), 5% milk and 0.1% TWEEN20 (PBST) at room temperature for at least one hour, and then incubated overnight with primary anti-puromycin antibodies (TFS; MABE343 mouse monoclonal antibodies clone 12D10; 1:12,500) at 4°C. Membranes were washed for five minutes three times in PBST and incubated with secondary goat anti-mouse horseradish peroxidase (HRP) -conjugated antibodies (TFS, Invitrogen; G21040; 1:25,000) for 90 min. After three more rounds of washing as above, membranes were incubated with an HRP substrate (TFS; 34077) for one minute and chemoluminescence was visualized by exposing membranes to film for 1, 2, 5, 10 and 30 min.
For β-actin staining, the same membranes used for puromycin immunostaining were washed four times, 5 min each, in 20 mM Tris-buffered saline containing 500 mM sodium chloride (pH 7.5) and 0.1% TWEEN20 (TBST) and stripped by two rounds of 20 and 10 min washes at 50°C in glycine buffer (pH 2.2) containing 0.1 % SDS (W/V) and 1% TWEEN20. Membranes were then washed at room temperature with PBS (3x10 min) and PBST (2x5min). Blocking, primary (1:4,000) and secondary (1:5,000) antibody staining was conducted as above. Primary rabbit anti-β-actin antibodies were obtained from Cell Signaling (4967S, lot 9) and secondary HRP-conjugated goat-anti-rabbit antibodies were from the same company (7074S, lot 27). […]

[2] = target: T1, l-type calcium current ICaL (Homo sapiens, UniProt Q13936); assay: Patch clamp recording of ICaL in human iPSC-derived cardiomyocytes; assay type: cell-based
T1 construct: host or cells: human iPSC-derived ventricular cardiomyocytes
Procedure: iPSC cells (Axol Bioscience Ltd, FL, USA) were plated at a density of 25,000 cells/cm^2 on coverslips coated with 1x Axol Fibronectin Coating Solution in Axol Plating Medium (Axol Cardiomyocyte Maintenance Medium, 10 % fetal bovine serum and 10 μM Y-27,632 2HCl) according to manufacturer's instructions. The next day the medium was changed to Axol Cardiomyocyte Maintenance Medium. Cells were maintained at 5 % CO2, 37 °C in humidified conditions. Medium was replaced every other day.
An Axopatch −1D (Axon Instruments: Molecular Devices LLC, CA, USA) amplifier and […] were used for recording and data analysis. Patch electrode resistance was set at 4–6 MΩ and room temperature was 22 ± 1 °C. During the recording, cells were held at −50 mV, then, the voltage was gradually raised to +60 mV in 10 mV increments with 300 ms pulse. The bath solution included the following components: 137 mM TEA-Cl, 1 mM MgCl2, 2 mM CaCl2, 10 mM HEPES, 10 mM glucose (pH 7.4, adjusted with TEA-OH). For the pipette the solution contained: 111 mM CsCl, 20 mM TEA-Cl, 10 mM glucose, 10 mM HEPES, 14 mM EGTA, 5 mM MgATP (pH 7.2, adjusted with CsOH).
D represents the concentrations of a given drug.

Entamoeba histolytica = assay: Growth inhibition of Entamoeba histolytica in vitro (literature); assay type: cell-based; conditions: anti-coronavirus IC50 versus amebae
sodium channel = target: sodium channel; set-up: method as in Lemmens-Gruber et al., 1997; conditions: ref Lemmens-Gruber et al., 1997; read-out: Kd, sodium channel reduction; cited from earlier work
[3] = Vero C1008, read-out: IC50, host protein synthesis
[4] = Vero C1008, Vero E6 cells, 1 h exposure, puromycin labeling, read-out: 50 % inhibitory activities, protein synthesis

T1 sequence (Q13936 whole entry): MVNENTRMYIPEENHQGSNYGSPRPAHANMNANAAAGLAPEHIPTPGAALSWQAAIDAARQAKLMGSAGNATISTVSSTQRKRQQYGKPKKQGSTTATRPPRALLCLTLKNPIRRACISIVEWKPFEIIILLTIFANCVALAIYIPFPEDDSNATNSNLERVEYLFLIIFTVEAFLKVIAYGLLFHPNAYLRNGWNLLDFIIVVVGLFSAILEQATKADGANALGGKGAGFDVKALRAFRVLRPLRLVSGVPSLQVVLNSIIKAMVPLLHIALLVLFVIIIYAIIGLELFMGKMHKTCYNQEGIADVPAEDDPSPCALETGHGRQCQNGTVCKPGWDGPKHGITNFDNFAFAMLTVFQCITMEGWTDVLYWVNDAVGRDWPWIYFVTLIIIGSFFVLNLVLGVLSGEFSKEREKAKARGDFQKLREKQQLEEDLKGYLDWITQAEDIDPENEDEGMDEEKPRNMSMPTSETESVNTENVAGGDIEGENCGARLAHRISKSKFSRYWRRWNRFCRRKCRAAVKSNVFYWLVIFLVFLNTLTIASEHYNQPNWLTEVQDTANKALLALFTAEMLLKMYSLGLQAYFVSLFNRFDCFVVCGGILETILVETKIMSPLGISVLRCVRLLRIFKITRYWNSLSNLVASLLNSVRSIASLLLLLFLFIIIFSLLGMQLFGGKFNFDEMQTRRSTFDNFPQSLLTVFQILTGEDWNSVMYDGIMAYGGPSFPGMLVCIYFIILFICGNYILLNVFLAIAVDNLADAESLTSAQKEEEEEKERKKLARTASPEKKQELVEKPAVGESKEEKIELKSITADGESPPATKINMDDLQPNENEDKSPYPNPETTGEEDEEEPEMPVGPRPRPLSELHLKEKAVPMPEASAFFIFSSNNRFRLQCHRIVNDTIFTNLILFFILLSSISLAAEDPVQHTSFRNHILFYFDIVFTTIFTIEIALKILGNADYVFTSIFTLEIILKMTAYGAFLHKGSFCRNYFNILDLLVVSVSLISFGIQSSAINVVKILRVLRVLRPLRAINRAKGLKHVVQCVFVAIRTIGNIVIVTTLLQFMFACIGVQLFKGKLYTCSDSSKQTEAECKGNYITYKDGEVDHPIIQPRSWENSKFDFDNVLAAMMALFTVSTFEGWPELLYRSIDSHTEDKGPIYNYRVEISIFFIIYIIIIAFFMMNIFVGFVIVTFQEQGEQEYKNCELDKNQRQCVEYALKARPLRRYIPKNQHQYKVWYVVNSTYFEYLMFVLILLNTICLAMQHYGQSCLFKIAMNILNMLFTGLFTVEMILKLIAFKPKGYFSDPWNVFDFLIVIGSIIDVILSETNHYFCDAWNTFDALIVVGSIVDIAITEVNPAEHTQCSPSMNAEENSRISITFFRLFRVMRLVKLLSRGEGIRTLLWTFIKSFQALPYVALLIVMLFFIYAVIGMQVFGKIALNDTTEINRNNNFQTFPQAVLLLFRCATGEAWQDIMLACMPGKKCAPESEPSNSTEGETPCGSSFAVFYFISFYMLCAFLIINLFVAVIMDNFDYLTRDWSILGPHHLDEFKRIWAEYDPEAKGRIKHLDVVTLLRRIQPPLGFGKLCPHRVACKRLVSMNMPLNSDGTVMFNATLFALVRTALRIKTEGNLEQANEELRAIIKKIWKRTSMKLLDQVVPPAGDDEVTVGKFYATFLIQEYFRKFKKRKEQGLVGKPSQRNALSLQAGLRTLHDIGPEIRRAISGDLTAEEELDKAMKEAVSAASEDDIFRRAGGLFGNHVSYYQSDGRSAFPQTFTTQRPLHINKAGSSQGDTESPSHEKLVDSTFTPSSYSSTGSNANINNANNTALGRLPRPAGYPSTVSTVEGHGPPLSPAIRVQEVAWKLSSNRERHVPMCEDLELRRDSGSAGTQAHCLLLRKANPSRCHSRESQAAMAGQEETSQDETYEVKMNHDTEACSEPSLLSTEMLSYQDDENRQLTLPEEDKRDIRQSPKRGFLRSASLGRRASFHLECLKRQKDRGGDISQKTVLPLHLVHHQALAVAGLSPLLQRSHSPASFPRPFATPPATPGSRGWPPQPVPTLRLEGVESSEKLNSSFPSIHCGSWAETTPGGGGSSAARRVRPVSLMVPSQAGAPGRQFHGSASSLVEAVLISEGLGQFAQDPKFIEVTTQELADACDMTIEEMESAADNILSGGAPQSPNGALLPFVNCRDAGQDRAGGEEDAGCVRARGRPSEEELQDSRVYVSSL
T1 sequence (P54289 25-956, further chain): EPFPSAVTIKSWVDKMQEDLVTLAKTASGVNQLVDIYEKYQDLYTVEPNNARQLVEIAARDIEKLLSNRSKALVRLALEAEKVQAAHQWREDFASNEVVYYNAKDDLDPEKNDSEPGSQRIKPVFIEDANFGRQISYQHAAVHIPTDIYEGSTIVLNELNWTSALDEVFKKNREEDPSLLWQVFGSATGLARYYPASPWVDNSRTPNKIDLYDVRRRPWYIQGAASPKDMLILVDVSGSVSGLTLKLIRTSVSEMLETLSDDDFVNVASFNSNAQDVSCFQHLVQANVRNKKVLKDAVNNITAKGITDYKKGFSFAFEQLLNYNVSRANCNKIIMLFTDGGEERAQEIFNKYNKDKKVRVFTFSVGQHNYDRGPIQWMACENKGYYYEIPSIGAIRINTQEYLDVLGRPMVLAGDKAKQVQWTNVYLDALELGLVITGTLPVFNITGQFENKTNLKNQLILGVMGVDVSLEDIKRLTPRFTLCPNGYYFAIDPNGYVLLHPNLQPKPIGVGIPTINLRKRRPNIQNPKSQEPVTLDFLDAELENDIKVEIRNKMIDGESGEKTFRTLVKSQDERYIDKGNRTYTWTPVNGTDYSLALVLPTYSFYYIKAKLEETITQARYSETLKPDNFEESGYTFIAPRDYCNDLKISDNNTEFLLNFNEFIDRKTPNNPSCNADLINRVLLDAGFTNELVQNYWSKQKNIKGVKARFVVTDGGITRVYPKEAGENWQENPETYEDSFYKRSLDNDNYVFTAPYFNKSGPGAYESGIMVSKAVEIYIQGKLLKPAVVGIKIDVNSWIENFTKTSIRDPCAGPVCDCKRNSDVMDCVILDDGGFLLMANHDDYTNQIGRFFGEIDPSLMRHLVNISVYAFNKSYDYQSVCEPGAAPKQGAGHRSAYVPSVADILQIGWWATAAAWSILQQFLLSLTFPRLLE
T1 sequence (P54289 957-1103, further chain): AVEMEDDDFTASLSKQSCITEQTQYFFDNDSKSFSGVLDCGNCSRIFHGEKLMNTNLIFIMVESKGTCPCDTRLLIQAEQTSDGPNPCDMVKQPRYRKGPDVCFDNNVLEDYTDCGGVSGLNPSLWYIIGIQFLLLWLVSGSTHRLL
T1 sequence (Q08289 whole entry, further chain): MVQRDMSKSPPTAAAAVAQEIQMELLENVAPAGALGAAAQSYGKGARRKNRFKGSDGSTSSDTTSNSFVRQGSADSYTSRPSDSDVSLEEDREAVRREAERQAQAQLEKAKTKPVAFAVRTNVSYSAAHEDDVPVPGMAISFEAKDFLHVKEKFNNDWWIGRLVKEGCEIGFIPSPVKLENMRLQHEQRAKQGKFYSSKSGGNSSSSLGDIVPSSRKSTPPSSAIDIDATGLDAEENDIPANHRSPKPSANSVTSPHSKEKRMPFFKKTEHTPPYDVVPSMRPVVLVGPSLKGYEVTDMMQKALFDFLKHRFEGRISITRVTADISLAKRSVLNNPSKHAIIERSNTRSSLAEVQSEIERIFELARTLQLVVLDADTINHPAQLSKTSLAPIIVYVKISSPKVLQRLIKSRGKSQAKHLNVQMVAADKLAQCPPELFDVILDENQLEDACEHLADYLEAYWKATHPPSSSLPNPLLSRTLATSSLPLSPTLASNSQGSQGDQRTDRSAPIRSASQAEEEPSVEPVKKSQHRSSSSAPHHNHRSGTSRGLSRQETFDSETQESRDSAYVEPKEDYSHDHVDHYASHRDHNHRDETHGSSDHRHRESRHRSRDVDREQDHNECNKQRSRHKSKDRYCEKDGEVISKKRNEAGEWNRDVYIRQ

Row | Structure (SMILES) | IC50 [1, 3] | IC50 [1, 4] | Protein synthesis,% ([1]; Vero E6, 0.01 μM) | Protein synthesis,% ([1]; Vero E6, 0.1 μM) | Protein synthesis, puromycilation signal ([1]; Vero E6, > 10 μM) | Concentration above which inhibition of puromycilation is not sustained ([1]; Vero E6 cells) | Kd [2] | Peak current density, ICaL ([2]; human IPSC-derived cardiomyocytes, DHE4 30 uM (control 13.5)) | Peak current density, ICaL, washout ([2]; human IPSC-derived cardiomyocytes, after washout of DHE4 30 uM (control 13.5)) | Fold, antiviral concentrations lower than those required to kill amebae (Entamoeba histolytica) | Protein synthesis,% ([1]; Vero E6, 0.01 μM, listed as EMT) | Protein synthesis,% ([1]; Vero E6, 0.03 μM) | Protein synthesis,% ([1]; Vero E6, 1 μM) | Protein synthesis,% ([1]; Vero E6, 1 μM, listed as EMT) | Estimated reduction in ICaL ([2]; human cardiomyocytes, assuming 25 µM) | Kd (sodium channel) | Protein synthesis, puromycilation signal ([1]; Vero E6, >1 μM)
1 | CCC1=C(C[C@H]2NCCc3cc(OC)c(OC)cc32)C[C@H]2c3cc(OC)c(OC)cc3CCN2C1 [DHE4, 4H-Benzo[a]quinolizine, 3-ethyl-1,6,7,11b-tetrahydro-9,10-dimethoxy-2-[[(1R)-1,2,3,4-tetrahydro-6,7-dimethoxy-1-isoquinolinyl]methyl]-, (11bS)-] | 150 to 170 nM | ~210 nM | 15% | 20% | signal increase | > 10 µM | 60000 nM | 8.9 | 9.8 | 125–250 fold | – | – | – | – | – | – | –
2 | CC[C@H]1CN2CCc3cc(OC)c(OC)cc3[C@@H]2C[C@@H]1C[C@H]1NCCc2cc(OC)c(OC)cc21 [Emetine, 2H-Benzoaquinolizine, 3-ethyl-1,3,4,6,7,11b-hexahydro-9,10-dimethoxy-2-(1R)-1,2,3,4-tetrahydro-6,7-dimethoxy-1-isoquinolinylmethyl-, dihydrochloride, (2S,3R,11bS)-, reference compound] | 150 to 170 nM | ~110 nM | – | 50% | signal increase | > 10 µM | – | – | – | – | 20% | 50% | terminating all translation activity | 100% | approximately one-third | 15000 nM | –
3 | CC[C@H]1CN2CCc3cc(OC)c(OC)cc3[C@@H]2C[C@@H]1C[C@@H]1NCCc2cc(OC)c(OC)cc21.Cl.Cl [Isoemetine, 2H-Benzoaquinolizine, 3-ethyl-1,3,4,6,7,11b-hexahydro-9,10-dimethoxy-2-(1S)-1,2,3,4-tetrahydro-6,7-dimethoxy-1-isoquinolinylmethyl-, dihydrochloride, (2S,3R,11bS)-] | – | – | – | 0% | – | > 1 µM | – | – | – | – | – | – | – | – | – | – | signal increase
